# Laboratory results as given in article PMC6199744, “Development of Chemical Proteomics for the Folateome and Analysis of the Kinetoplastid Folateome” (ACS Infectious Diseases, 2018).
# Read-outs that look alike come from different tables or passages of the source.
# What was measured:
# Assay type in all cases: binding
# [1] = target: T1, HeLa cell extract proteins (Homo sapiens, UniProt Q9HAV4)
# T1 construct: endogenous in cells; host or cells: HeLa cell extract
# T1 sequence (Q9HAV4 1-1204): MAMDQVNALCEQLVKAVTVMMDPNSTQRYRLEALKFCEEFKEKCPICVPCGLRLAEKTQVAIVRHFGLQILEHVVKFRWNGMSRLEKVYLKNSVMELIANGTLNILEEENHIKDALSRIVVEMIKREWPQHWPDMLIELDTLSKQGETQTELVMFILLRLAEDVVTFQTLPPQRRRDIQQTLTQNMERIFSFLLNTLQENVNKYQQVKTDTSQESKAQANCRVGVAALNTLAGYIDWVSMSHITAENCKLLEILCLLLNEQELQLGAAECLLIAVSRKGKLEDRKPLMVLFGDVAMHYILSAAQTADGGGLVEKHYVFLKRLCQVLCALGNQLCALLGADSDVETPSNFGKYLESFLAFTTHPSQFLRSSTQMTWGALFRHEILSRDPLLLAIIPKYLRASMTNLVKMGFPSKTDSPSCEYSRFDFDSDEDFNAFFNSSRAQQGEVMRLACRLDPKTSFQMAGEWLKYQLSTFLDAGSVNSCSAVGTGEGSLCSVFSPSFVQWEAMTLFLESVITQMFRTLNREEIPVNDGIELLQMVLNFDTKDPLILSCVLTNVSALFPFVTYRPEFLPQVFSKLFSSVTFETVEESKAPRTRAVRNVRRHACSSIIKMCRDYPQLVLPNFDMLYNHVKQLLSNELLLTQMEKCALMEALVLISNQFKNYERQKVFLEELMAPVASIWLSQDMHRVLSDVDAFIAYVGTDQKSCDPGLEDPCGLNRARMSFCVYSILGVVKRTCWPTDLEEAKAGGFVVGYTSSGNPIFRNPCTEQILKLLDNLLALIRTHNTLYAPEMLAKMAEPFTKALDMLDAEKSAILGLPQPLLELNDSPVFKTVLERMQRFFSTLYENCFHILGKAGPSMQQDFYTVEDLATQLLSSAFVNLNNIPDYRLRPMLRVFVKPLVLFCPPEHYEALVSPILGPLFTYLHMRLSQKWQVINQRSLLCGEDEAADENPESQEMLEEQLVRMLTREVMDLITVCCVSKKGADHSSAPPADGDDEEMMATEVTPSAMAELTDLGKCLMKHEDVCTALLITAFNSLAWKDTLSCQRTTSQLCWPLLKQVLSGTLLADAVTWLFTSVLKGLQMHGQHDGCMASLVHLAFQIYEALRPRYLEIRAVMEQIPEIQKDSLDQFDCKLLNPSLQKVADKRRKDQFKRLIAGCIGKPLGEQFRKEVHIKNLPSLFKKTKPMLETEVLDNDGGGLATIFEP
# [2] = target: T2, HeLa cell extract proteins (Homo sapiens, UniProt P36542)
# T2 construct: endogenous in cells; host or cells: HeLa cell extract
# T2 sequence (P36542 26-298): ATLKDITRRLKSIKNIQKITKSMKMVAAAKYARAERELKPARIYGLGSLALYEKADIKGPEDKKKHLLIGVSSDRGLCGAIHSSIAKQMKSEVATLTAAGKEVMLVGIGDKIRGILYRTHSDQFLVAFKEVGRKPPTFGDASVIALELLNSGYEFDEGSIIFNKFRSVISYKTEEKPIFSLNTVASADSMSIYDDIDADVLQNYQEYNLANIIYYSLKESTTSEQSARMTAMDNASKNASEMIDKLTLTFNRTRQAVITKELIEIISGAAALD
# [3] = target: T3, HeLa cell extract proteins (Homo sapiens, UniProt P33992)
# T3 construct: endogenous in cells; host or cells: HeLa cell extract
# T3 sequence (P33992 1-734): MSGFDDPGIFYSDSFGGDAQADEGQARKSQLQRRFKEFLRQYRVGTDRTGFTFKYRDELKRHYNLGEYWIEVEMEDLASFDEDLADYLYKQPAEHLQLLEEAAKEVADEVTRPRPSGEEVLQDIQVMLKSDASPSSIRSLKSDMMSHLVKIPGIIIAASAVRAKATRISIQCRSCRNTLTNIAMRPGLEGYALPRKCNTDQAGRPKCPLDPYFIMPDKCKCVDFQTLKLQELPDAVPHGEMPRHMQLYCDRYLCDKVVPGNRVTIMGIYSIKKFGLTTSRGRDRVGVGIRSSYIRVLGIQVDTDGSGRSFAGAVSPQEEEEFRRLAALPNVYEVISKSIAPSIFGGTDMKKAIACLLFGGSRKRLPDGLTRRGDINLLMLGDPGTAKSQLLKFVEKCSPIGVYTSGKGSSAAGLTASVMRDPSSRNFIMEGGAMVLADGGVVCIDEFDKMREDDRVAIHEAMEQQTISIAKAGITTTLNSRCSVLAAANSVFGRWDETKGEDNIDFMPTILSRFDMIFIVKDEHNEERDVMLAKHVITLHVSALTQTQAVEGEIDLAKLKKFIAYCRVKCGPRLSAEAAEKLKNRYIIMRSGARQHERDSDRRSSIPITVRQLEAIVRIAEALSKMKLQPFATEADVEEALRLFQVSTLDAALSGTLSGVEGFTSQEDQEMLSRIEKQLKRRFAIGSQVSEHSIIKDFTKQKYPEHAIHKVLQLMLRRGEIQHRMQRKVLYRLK
# [4] = target: T4, HeLa cell extract proteins (Homo sapiens, UniProt P05023)
# T4 construct: endogenous in cells; host or cells: HeLa cell extract
# [5] = target: T5, HeLa cell extract proteins (Homo sapiens, UniProt P21359)
# T5 construct: endogenous in cells; host or cells: HeLa cell extract
# T5 sequence (P21359 whole entry): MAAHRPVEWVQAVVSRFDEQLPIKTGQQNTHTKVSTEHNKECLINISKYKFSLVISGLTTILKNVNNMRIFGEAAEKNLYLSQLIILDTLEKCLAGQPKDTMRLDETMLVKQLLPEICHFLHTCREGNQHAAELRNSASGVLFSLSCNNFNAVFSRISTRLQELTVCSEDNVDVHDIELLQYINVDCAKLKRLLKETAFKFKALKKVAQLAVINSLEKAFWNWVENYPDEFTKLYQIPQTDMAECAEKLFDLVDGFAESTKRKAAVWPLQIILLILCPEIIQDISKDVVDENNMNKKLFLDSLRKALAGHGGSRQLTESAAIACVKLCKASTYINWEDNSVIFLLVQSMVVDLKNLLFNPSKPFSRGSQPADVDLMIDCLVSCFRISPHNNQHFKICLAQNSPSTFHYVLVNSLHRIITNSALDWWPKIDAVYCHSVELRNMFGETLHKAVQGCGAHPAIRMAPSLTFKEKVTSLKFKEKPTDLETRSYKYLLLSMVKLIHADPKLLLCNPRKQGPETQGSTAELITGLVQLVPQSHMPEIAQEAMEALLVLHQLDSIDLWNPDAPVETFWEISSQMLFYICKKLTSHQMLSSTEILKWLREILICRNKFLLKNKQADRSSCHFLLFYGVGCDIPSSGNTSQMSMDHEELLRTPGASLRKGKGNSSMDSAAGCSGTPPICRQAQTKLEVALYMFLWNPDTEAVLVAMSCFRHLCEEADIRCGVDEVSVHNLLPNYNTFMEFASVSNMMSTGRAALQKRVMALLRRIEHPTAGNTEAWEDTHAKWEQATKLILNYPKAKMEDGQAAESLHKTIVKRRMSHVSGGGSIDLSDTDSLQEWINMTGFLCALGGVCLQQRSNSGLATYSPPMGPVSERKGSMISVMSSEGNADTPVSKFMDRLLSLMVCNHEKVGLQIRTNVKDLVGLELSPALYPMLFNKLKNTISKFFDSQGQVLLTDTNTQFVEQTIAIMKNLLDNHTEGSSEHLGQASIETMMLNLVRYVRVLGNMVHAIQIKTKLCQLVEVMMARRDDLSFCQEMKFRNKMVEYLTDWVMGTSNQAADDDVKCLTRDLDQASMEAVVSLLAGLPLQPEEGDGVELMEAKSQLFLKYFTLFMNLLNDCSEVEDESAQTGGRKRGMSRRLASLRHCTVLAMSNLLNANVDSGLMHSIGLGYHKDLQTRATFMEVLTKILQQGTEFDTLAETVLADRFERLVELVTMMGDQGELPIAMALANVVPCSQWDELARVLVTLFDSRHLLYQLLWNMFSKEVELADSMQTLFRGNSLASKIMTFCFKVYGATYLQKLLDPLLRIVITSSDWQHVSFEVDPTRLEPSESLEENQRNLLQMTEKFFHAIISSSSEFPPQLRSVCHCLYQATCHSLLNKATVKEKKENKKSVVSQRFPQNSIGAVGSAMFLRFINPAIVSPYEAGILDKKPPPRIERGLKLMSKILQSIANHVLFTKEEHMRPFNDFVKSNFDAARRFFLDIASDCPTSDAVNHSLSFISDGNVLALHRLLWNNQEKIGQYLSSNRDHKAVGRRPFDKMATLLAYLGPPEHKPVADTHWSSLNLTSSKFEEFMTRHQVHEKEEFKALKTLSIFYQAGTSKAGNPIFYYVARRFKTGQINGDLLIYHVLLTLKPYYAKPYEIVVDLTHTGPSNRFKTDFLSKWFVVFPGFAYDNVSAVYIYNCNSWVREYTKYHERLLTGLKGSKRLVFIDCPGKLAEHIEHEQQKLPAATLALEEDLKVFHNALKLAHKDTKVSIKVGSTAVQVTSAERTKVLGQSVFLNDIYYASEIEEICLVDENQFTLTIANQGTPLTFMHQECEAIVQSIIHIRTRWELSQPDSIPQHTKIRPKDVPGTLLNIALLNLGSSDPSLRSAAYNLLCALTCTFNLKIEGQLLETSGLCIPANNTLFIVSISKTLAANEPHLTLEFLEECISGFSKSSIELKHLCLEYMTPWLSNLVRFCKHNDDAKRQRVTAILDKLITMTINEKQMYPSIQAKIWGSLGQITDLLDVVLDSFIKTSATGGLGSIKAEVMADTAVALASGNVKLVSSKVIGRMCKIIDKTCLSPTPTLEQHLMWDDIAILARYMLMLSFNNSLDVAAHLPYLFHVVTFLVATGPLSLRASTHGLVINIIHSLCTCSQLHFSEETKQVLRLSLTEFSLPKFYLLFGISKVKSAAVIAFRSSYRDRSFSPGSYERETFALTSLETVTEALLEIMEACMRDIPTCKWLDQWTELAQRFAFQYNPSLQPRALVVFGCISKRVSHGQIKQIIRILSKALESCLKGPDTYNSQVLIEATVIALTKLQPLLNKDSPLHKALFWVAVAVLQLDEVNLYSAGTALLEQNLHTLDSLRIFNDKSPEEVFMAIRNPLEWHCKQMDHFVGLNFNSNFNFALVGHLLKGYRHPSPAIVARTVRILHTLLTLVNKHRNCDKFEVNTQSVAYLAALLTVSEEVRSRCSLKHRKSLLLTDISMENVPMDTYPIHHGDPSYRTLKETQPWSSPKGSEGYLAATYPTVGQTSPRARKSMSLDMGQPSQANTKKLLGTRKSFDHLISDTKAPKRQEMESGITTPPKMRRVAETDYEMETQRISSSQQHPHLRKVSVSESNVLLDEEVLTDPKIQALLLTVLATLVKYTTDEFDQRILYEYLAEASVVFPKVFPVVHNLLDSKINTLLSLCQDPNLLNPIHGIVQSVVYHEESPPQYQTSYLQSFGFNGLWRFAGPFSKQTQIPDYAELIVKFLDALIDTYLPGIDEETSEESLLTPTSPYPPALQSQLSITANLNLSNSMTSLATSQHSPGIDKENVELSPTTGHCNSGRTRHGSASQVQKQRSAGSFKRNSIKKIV
Compound,"fold changes relative to vehicle control ([1]; HeLa, protein XPO5)","fold changes relative to vehicle control ([2]; HeLa, protein ATP5C1)","fold changes relative to vehicle control ([3]; protein MCM5, HeLa)","fold changes relative to vehicle control ([4]; protein ATP1A1, HeLa)","fold changes relative to vehicle control ([5]; protein NF1, HeLa)","fold changes relative to vehicle control ([1]; protein XPO5, HeLa)","fold changes relative to vehicle control ([2]; HeLa, captured protein ATP5C1)","fold changes relative to vehicle control ([3]; HeLa, protein MCM5)","fold changes relative to vehicle control ([5]; HeLa, protein NF1)",fold changes relative to vehicle control [1],fold changes relative to vehicle control [2],fold changes relative to vehicle control [3],fold changes relative to vehicle control [4],fold changes relative to vehicle control [5]
CCCCCCOc1cccc(Cc2cnc(N)nc2N)c1 [compound 2],1.18,0.9,1.41,1.25,1.15,–,–,–,–,–,–,–,–,–
NCCOCCOCC(=O)Nc1nc2ncc(CNc3ccc(C(=O)NC(CCC(=O)O)C(=O)O)cc3)nc2c(=O)[nH]1 (centres unmarked) [compound 6],–,–,–,1.05,–,1.02,0.97,1.03,1.18,–,–,–,–,–
CCCCCCOc1ccc(Cc2cnc(N)nc2N)cc1 [compound 1],1,1.05,1.04,0.73,0.84,–,–,–,–,–,–,–,–,–
"Nc1nc2c(c(=O)[nH]1)N(C=O)C(CNc1ccc(C(=O)N[C@@H](CCC(=O)O)C(=O)O)cc1)CN2 (some centres unmarked) [LEU, leucovorin]",–,–,–,0.76,–,0.86,0.99,0.94,0.96,–,–,–,–,–
NCCCNc1ccc(C(=O)NC(CCC(=O)O)C(=O)O)cc1 (centres unmarked) [compound 7],–,–,–,0.92,–,0.98,0.99,0.98,1.11,–,–,–,–,–
"Nc1nc2[nH]cc(CCc3ccc(C(=O)N[C@@H](CCC(=O)O)C(=O)O)cc3)c2c(=O)[nH]1 [PTX, pemetrexed]",–,–,–,–,–,–,–,–,–,0.92,1.01,1.12,0.96,1.04
Nc1nc2cccc(-c3ccccc3)c2n1Cc1ccc(Cl)c(Cl)c1 [compound 3],1.1,0.89,0.93,0.94,1.06,–,–,–,–,–,–,–,–,–
